Measured values: PubChem BioAssay (NCI)
Several values for one entry are separate records, joined by “and”; a condition that tells them apart may be missing. Identical values can stand only once.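 These data come from cells grown in 96-well plates and exposed to compound for 48 hours at five concentrations. GI50 = concentration required for 50% inhibition of growth. TGI: total growth inhibition.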

Legend:
Experiment in all cases: NCI anticancer screen, dose series, 48 h
CAKI-1 renal = system: CAKI-1 renal
U251 CNS = system: U251 CNS
HCT-15 colon = system: HCT-15 colon
HCT-116 colon = system: HCT-116 colon
SK-MEL-28 melanoma = system: SK-MEL-28 melanoma
BT-549 breast = system: BT-549 breast
RXF 393 renal = system: RXF 393 renal
A498 renal = system: A498 renal

Structure (SMILES)	GI50 (CAKI-1 renal)	GI50 (U251 CNS)	TGI (U251 CNS)	GI50 (HCT-15 colon)	TGI (HCT-15 colon)	GI50 (HCT-116 colon)	TGI (HCT-116 colon)	GI50 (SK-MEL-28 melanoma)	TGI (SK-MEL-28 melanoma)	GI50 (BT-549 breast)	TGI (BT-549 breast)	GI50 (RXF 393 renal)	TGI (RXF 393 renal)	TGI (CAKI-1 renal)	GI50 (A498 renal)	TGI (A498 renal)
COc1cc2c(cc1OCCCCOc1cc3c(cc1OC)C(=O)N1CCC[C@H]1CN3)N=C[C@@H]1CCCN1C2=O	0.344 µM	0.392 µM	> 100 µM	25.2 µM	> 93.3 µM	2.37 µM	> 100 µM	2.86 µM	11.8 µM	0.357 µM	5.75 µM	0.29 µM	1.45 µM			
Cc1cc2c3ccc(C)[n+](C)c3ccc2n1C	30.5 µM	1.9 µM	15.1 µM	> 100 µM	> 100 µM	2.31 µM	33.1 µM	6.05 µM	19.5 µM	2.27 µM	13.1 µM	4.01 µM	44.2 µM	> 100 µM	0.357 µM	3.8 µM
COc1cc2nc(N3CCCC3)nc(NCC3CCCCC3)c2cc1OC	1.34 µM	1.21 µM	2.64 µM	0.505 µM	1.8 µM	0.805 µM	2.21 µM	1.55 µM	2.91 µM	1.41 µM	2.78 µM	1.07 µM	2.49 µM	2.64 µM	1.11 µM	2.47 µM
C[C@]12CC[C@H]3[C@@H](CCC4=CC(=O)CC[C@@H]43)[C@@H]1CC[C@@H]2OC(=O)CCc1ccccc1	12 µM	15.1 µM	28.4 µM	24.6 µM	> 89.7 µM	19.3 µM	43.9 µM	16.8 µM	37 µM	17.5 µM	33.9 µM	19.6 µM	43.5 µM	26.2 µM	16.2 µM	30.8 µM
Cc1ccc(NC(=O)/C=C/c2ccccc2)c(C(N)=O)c1	6.78 µM	3.8 µM	> 100 µM	2.43 µM	> 100 µM	2.96 µM	> 76.8 µM	3.65 µM	> 100 µM	12.5 µM	> 100 µM	2.67 µM	8.16 µM	> 59.4 µM	3.61 µM	34.6 µM
CN(C)c1ccc(/C=C\c2cccc[n+]2C)cc1	3.8 µM	4.89 µM	> 100 µM	92.8 µM	> 100 µM	4.16 µM	> 100 µM	14.8 µM	81.7 µM	2.76 µM	79.8 µM	18.2 µM	> 100 µM	> 100 µM	2.53 µM	33.7 µM
CC(CN1CCN(CCOCCO)CC1)CN1c2ccccc2Sc2ccc(Cl)cc21 (stereo unspecified)	4.37 µM	2.19 µM	6.04 µM	1.85 µM	3.76 µM	2.03 µM	4.35 µM	1.75 µM	3.22 µM	2.45 µM	6.67 µM	1.58 µM	4.85 µM	17.1 µM	1.78 µM	5.08 µM
CC(C)(C)c1n[nH]c(=S)n(/N=C/c2ccc(F)c(Oc3ccccc3)c2)c1=O	28.5 µM	39.2 µM	> 100 µM	37.7 µM	> 100 µM	> 100 µM	> 100 µM	20.7 µM	> 100 µM	34.5 µM	94.5 µM	38.2 µM	> 100 µM	68.9 µM	27.8 µM	69.7 µM
COc1ccc(-c2cc(-c3ccccc3)nc(SCCCC(=O)NO)n2)cc1	0.335 µM	1.12 µM	4.22 µM	0.387 µM	3.34 µM	0.531 µM	12.7 µM	1.25 µM	3.12 µM	2.76 µM	13.1 µM	0.338 µM	1.4 µM	1.45 µM	0.816 µM	2.53 µM
Cc1ccc(C(=O)Nc2cccc(C(F)(F)F)c2)cc1Nc1nc(-c2cccnc2)nc2c1cnn2C	2.44 µM and 1.33 µM	3.66 µM and 2.9 µM	22 µM and > 10 µM	2.65 µM and 1.63 µM	4.94 µM	0.917 µM and 0.377 µM	2.87 µM and 3.67 µM	0.866 µM and 0.389 µM	7.66 µM and 3.4 µM	4.12 µM and 2.86 µM	14.5 µM and 8.91 µM	1.47 µM and 1.45 µM	4.24 µM and 3.66 µM	11.8 µM and 3.35 µM	1.6 µM	5.01 µM
CC(C)CC(CC1=CCC2CC1C2(C)C)C1=C(O)C(C)(C)C(=O)C(C)(C)C1=O (stereo unspecified)	0.332 µM	0.335 µM	> 100 µM	0.35 µM	5.18 µM	0.376 µM	1.46 µM			0.413 µM	4.37 µM	0.434 µM	3.83 µM	2.29 µM	0.236 µM	0.651 µM
Cc1ccc(-c2cc(-c3ccc(C)cc3)nc(NCCNc3ccnc4cc(Cl)ccc34)n2)cc1	1.43 µM	1.72 µM	3.36 µM	1.55 µM	3.16 µM	1.6 µM	3.44 µM	1.76 µM	3.38 µM					2.82 µM	1.89 µM	3.46 µM
O=[N+]([O-])c1cccc(-c2nc3sccn3c2-c2ccnc(NCCCNS(=O)(=O)c3cccc(F)c3)n2)c1	2.33 µM	4.56 µM	39.4 µM	2.3 µM	12.3 µM	2.74 µM	> 100 µM	2.63 µM	7.76 µM	2.18 µM	11.9 µM	8.13 µM	41.6 µM	14.1 µM	1.56 µM	30.5 µM
N/C(=N\N=C\c1ccc(-c2ccccc2)cc1)N[N+](=O)[O-]	4.17 µM	3.05 µM	> 100 µM	2.03 µM	> 100 µM	1.97 µM	> 100 µM	25.3 µM	> 100 µM	17.1 µM	> 100 µM	2.78 µM	80.2 µM	> 100 µM	0.418 µM	7.58 µM
COc1cccc(C=Nc2cc(C)ccn2)c1O.COc1cccc(C=Nc2cc(C)ccn2)c1O.[Cu]	20.5 µM	15.7 µM	51.1 µM	11.9 µM	36 µM	14.1 µM	32.3 µM	21.7 µM	48 µM	16.5 µM	42.4 µM	11.9 µM	34.8 µM	46 µM	22.8 µM	43.4 µM
